Measured values published in patent US8163766B2, “Beta-secretase modulators and methods of use” (Amgen Inc., priority 2005, dated 2012).

tested on: Aβ 40 in conditioned media of cells stably expressing Amyloid Precursor Protein (APP); experiment: BACE Cell-Based Assay (Aβ40 in conditioned medium, sandwich ELISA); details: 24 hours of incubation with the test compounds, Aβ 40 by sandwich ELISA, read-out: IC50 values in the cell-based assay (inhibition of Aβ 40)
Experimental: The cell-based assay measures inhibition or reduction of Aβ40 in conditioned medium of test compound treated cells, which express amyloid precursor protein.
Cells stably expressing Amyloid Precursor Protein (APP) were plated at a density of 40K cells/well in 96 well plates (Costar). The cells were cultivated for 24 h at 37° C. and 5% CO2 in DMEM supplemented with 10% FBS. The test compounds were then added to cells in 10-point dose response concentrations with the starting concentration being either 100 μM or 10 μM. The compounds were diluted from stock solutions in DMSO and the final DMSO concentration of the test compounds on cells was 0.1%. After 24 hours of incubation with the test compounds the supernatant conditioned media was collected and the Aβ 40 levels were determined using a sandwich ELISA. The IC50 of the compound was calculated from the percent of control or percent inhibition of Aβ 40 as a function of the concentration of the test compound.
The sandwich ELISA to detect Aβ 40 was performed in 96 well microtiter plates, which were pre-treated with goat anti-rabbit IgG (Pierce). The capture and detecting antibody pair that were used to detect Aβ 40 from cell supernatants were affinity purified pAb40 (Biosource) and biotinylated 6E10 (Signet Labs Inc.), respectively. The optimal concentration for the pAb40 antibody was 3 μg/ml in Superblock/TBS (Pierce) that was supplemented with 0.05% Tween 20 (Sigma). Optimal concentration for the detection antibody 6E10-biotinylated was […] in Superblock/TBS (Pierce) that had been supplemented with 2% normal goat serum and 2% normal mouse serum.
Cellular supernatants were incubated with the capture antibody for 3 h at 4° C., followed by 3 wash steps in TBS-tween (0.05%). The detecting antibody incubation was for 2 h at 4° C., again followed by the wash steps as described previously. The final readout of the ELISA is Time-Resolved Fluorescence (counts per minute) using Delfia reagents Streptavidin-Europium and Enhancement solutions (Perkin Elmer) and the Victor 2 multilabel counter (Perkin Elmer).

How did the IC50 turn out when `CCc1ccc2c(c1)C(NC[C@@H](O)[C@H](Cc1ccccc1)NC(=O)c1cc(C#N)c(=O)n(C3CCCC3)c1)CC1(CCCC1)O2` (some centres unmarked) [Example 1] was run?
Its IC50 is at most 5 µM.

With `CCc1ccc2c(c1)C(NC[C@@H](O)[C@H](Cc1ccccc1)NC(=O)c1ccc(=O)n(C3CCCC3)c1)CC1(CCCC1)O2` (some centres unmarked) [Example 2] as the molecule, how does the IC50 read?
Its IC50 is at most 5 µM.

How did the IC50 turn out when `CCc1ccc2c(c1)C(NC[C@@H](O)[C@H](Cc1ccccc1)NC(=O)c1cc(-c3ccccc3F)c(=O)n(C3CCCC3)c1)CC1(CCCC1)O2` (some centres unmarked) [Example 3] was run?
Its IC50 is at most 5 µM.

With `CCc1ccc2c(c1)C(NC[C@@H](O)[C@H](Cc1ccccc1)NC(=O)c1cc(-c3ccccn3)c(=O)n(C3CCCC3)c1)CC1(CCCC1)O2` (some centres unmarked) [Example 5] as the molecule, how does the IC50 read?
The IC50 was at most 5 µM.

How did the IC50 turn out when `CCc1ccc2c(c1)C(NC[C@@H](O)[C@H](Cc1ccccc1)NC(=O)c1cc(-n3cccn3)c(=O)n(C3CCCC3)c1)CC1(CCCC1)O2` (some centres unmarked) [Example 6] was run?
Its IC50 is at most 5 µM.

With `CCc1ccc2c(c1)C(NC[C@@H](O)[C@H](Cc1ccccc1)NC(=O)c1cc(-c3ccc(F)cc3)c(=O)n(C3CCCC3)c1)CC1(CCCC1)O2` (some centres unmarked) [Example 7] as the molecule, how does the IC50 read?
Its IC50 is at most 5 µM.

With `CCc1ccc2c(c1)C(NC[C@@H](O)[C@H](Cc1ccccc1)NC(=O)c1cc(-c3ccccc3)c(=O)n(C3CCCC3)c1)CC1(CCCC1)O2` (some centres unmarked) [Example 8] as the molecule, how does the IC50 read?
The IC50 was at most 5 µM.

For `CCc1ccc2c(c1)C(NC[C@@H](O)[C@H](Cc1ccccc1)NC(=O)c1cc(-c3cccc(F)c3)c(=O)n(C3CCCC3)c1)CC1(CCCC1)O2` (some centres unmarked) [Example 9], which IC50 is on record?
The IC50 was at most 5 µM.

For `CCc1ccc2c(c1)C(NC[C@@H](O)[C@H](Cc1ccccc1)NC(=O)c1ccc(=O)n(C3CCC(c4ccccc4)C3)c1)CC1(CCCC1)O2` (some centres unmarked) [Example 10], which IC50 is on record?
The IC50 was at most 5 µM.

With `CCc1ccc2c(c1)C(NC[C@@H](O)[C@H](Cc1ccccc1)NC(=O)c1ccc(=O)n(C3CCCC(c4ccccc4)C3)c1)CC1(CCCC1)O2` (some centres unmarked) [Example 12] as the molecule, how does the IC50 read?
Its IC50 is at most 5 µM.

Which IC50 does the source give for `CCc1ccc2c(c1)C(NC[C@@H](O)[C@H](Cc1ccccc1)NC(=O)c1cc(-c3cccnc3)c(=O)n(C3CCCC3)c1)CC1(CCCC1)O2` (stereo partly drawn) [Example 14, 1-cyclopentyl-N-((2S,3R)-4-(6-ethyl-2,2-spirocyclopentylchroman-4-ylamino)-3-hydrodroxy-1-phenylbutan-2-yl)-6-OXO-5-(pyridine-3-yl)-1,6-dihydropyridine-3-carboxamide] here?
The IC50 was at most 5 µM.

For `CCc1ccc2c(c1)C(NC[C@@H](O)[C@H](Cc1ccccc1)NC(=O)c1cc(-c3ccncc3)c(=O)n(C3CCCC3)c1)CC1(CCCC1)O2` (stereo partly drawn) [Example 15, 1-cyclopentyl-N-((2S,3R)-4-(6-ethyl-2,2-spirocyclopentylchroman-4-ylamino)-3-hydrodroxy-1-phenylbutan-2-yl)-6-OXO-5-(pyridin-4-yl)-1,6-dihydropyridine-3-carboxamide], which IC50 is on record?
The IC50 was at most 5 µM.

How did the IC50 turn out when `CCc1ccc2c(c1)C(NC[C@@H](O)[C@H](Cc1ccccc1)NC(=O)c1cc(-c3cncnc3)c(=O)n(C3CCCC3)c1)CC1(CCCC1)O2` (stereo partly drawn) [Example 16, 1-cyclopentyl-N-((2S,3R)-4-(6-ethyl-2,2-spirocyclopentylchroman-4-ylamino)-3-hydrodroxy-1-phenylbutan-2-yl)-6-OXO-5-(pyrimidin-5-yl)-1,6-dihydropyridine-3-carboxamide] was run?
Its IC50 is at most 5 µM.

For `CCc1ccc2c(c1)C(NC[C@@H](O)[C@H](Cc1ccccc1)NC(=O)c1cc(N3CCCC3)c(=O)n(C3CCCC3)c1)CC1(CCCC1)O2` (stereo partly drawn) [Example 17, 1-cyclopentyl-N-((2S,3R)-4-(6-ethyl-2,2-spirocyclopentylchroman-4-ylamino)-3-hydrodroxy-1-phenylbutan-2-yl)-6-OXO-5-(pyrrolidin-1-yl)-1,6-dihydropyridine-3-carboxamide], which IC50 is on record?
Its IC50 is at most 5 µM.

For `CCc1ccc2c(c1)C(NC[C@@H](O)[C@H](Cc1ccccc1)NC(=O)c1cc(NC(C)C)c(=O)n(C3CCCC3)c1)CC1(CCCC1)O2` (stereo partly drawn) [Example 18, 1-cyclopentyl-N-((2S,3R)-4-(6-ethyl-2,2-spirocyclopentylchroman-4-ylamino)-3-hydrodroxy-1-phenylbutan-2-yl)-5-(isopropylamino)-6-oxo-1,6-dihydropyridine-3-carboxamide], which IC50 is on record?
The IC50 was at most 5 µM.

For `CCc1ccc2c(c1)C(NC[C@@H](O)[C@H](Cc1ccccc1)NC(=O)c1cc(N(C)C)c(=O)n(C3CCCC3)c1)CC1(CCCC1)O2` (stereo partly drawn) [Example 19, 1-cyclopentyl-5-(dimethylamino)-N-((2S,3R)-4-(6-ethyl-2,2-spirocyclopentylchroman-4-ylamino)-3-hydrodroxy-1-phenylbutan-2-yl)-6-oxo-1,6-dihydropyridine-3-carboxamide], which IC50 is on record?
Its IC50 is at most 5 µM.

Which IC50 does the source give for `CCc1ccc2c(c1)C(NC[C@@H](O)[C@H](Cc1ccccc1)NC(=O)c1cc(-c3cnccn3)c(=O)n(C3CCCC3)c1)CC1(CCCC1)O2` (stereo partly drawn) [Example 22, 1-cyclopentyl-N-((2S,3R)-4-(6-ethyl-2,2-spirocyclopentylchroman-4-ylamino)-3-hydrodroxy-1-phenylbutan-2-yl)-6-oxo-5-(pyrazin-2-yl)-1,6-dihydropyridine-3-carboxamide] here?
Its IC50 is at most 5 µM.

How did the IC50 turn out when `CCc1ccc2c(c1)C(NC[C@@H](O)[C@H](Cc1ccccc1)NC(=O)c1cc(C3CCCCO3)c(=O)n(C3CCCC3)c1)CC1(CCCC1)O2` (stereo partly drawn) [Example 23, 1-cyclopentyl-N-((2S,3R)-4-(6-ethyl-2,2-spirocyclopentylchroman-4-ylamino)-3-hydrodroxy-1-phenylbutan-2-yl)-6-OXO-5-(tetrahydro-2H-pyran-2-yl)-1,6-dihydropyridine-3-carboxamide] was run?
Its IC50 is at most 5 µM.

With `CCc1ccc2c(c1)C(NC[C@@H](O)[C@H](Cc1ccccc1)NC(=O)c1cc(C3CCCO3)c(=O)n(C3CCCC3)c1)CC1(CCCC1)O2` (stereo partly drawn) [Example 24, 1-cyclopentyl-N-((2S,3R)-4-(6-ethyl-2,2-spirocyclopentylchroman-4-ylamino)-3-hydrodroxy-1-phenylbutan-2-yl)-6-OXO-5-(tetrahydrofuran-2-yl)-1,6-dihydropyridine-3-carboxamide] as the molecule, how does the IC50 read?
The IC50 was at most 5 µM.

Which IC50 does the source give for `CCc1ccc2c(c1)[C@@H](NC[C@@H](O)[C@H](Cc1ccccc1)NC(=O)C1CN(Cc3ccccc3)CCO1)CC1(CCCC1)O2` (stereo partly drawn) [Example 29, 4-Benzyl-N-((2S,3R)-4-((S)-6-ethyl-2,2-spirocyclopentylchroman-4-ylamino)-3-hydroxy-1-phenylbutan-2-yl) morpholine-2-carboxamide] here?
Its IC50 is at most 5 µM.

Which IC50 does the source give for `CC(C)c1ccc2c(c1)[C@@H](NC[C@@H](O)[C@H](Cc1ccccc1)NC(=O)C1CCCN(c3ccccn3)C1)CC1(CCCC1)O2` (stereo partly drawn) [Example 32, N-((2S,3R)-3-hydroxy-4-((S)-6-isopropyl-2,2-spirocyclopentylchroman-4-ylamino)-1-phenylbutan-2-yl)-1-(pyridin-2-yl)piperidine-3-carboxamide] here?
Its IC50 is at most 5 µM.

`CCc1ccc2c(c1)[C@@H](NC[C@@H](O)[C@H](Cc1ccccc1)NC(=O)C1CN(C3CCCC3)c3ccccc3O1)CC1(CCCC1)O2` (stereo partly drawn) [Example 43, 4-Cyclopentyl-N-((2S,3R)-4-((S)-6-ethyl-2,2-spirocyclopentylchroman-4-ylamino)-3-hydroxy-1-phenylbutan-2-yl)-3,4-dihydro-2H-benzo[b][1,4]oxazine-2-carboxamide] was tested. Which IC50 did it give?
The IC50 was at most 5 µM.

With `CCc1ccc2c(c1)[C@@H](NC[C@@H](O)[C@H](Cc1ccccc1)NC(=O)[C@H]1CN(C)c3ccccc3O1)CC1(CCCC1)O2` [Example 47, (R)—N-((2S,3R)-4-((S)-6-ethyl-2,2-spirocyclopentylchroman-4-ylamino)-3-hydroxy-1-phenylbutan-2-yl)-4-methyl-3,4-dihydro-2H-benzo[b][1,4]oxazine-2-carboxamide] as the molecule, how does the IC50 read?
Its IC50 is at most 5 µM.
